Read-outs that look alike come from different tables or passages of the source.

Series [1] concerns human lymphoblastoid TK6 cells. Nature of the series: MultiFlow DNA Damage assay (γH2AX, p53, p-H3, polyploidy). In kind it is cell-based. As for the experimental part: Treated cells were gently resuspended and 25 µL/well was mixed thoroughly with the labeling solution. The plate was incubated for 30 min at room temperature shielded from light.
The γH2AX and p53 endpoints were measured based on their median fluorescence intensity (i.e., mean channel fluorescence or MCF) relative to the DMSO solvent control. The p-H3 and polyploidy endpoints were measured based on their frequencies among all events (i.e., all 2n–4n and polyploidy (8n) DNA content). The equations for calculating γH2AX shift, nuclear p53 shift, % polyploidy, and % p-H3 positive events are shown below.
Latex microspheres were used as counting beads to determine nuclear density.
Litron developed Global Evaluation Factors (GEF) to identify a biologically significant increase in select biomarker levels.
A clastogenic or aneugenic call required two successive concentrations that met or exceeded the GEFs in at least 2 of the 4 respective MoA biomarkers. Chemicals that met or exceeded two GEFs in a single non-cytotoxic concentration were designated as “weak” responses. In cases where both clastogen and aneugen biomarkers exceeded the GEF the MoA was considered pan-genotoxic. In cases where less than two biomarkers met the GEFs, the call was non-genotoxic.

Series [2] deals with human lymphoblastoid TK6 cells.
Series [3] deals with chromosome damage. Also noted: method as in Matsushima et al., 1999; Von Der Hude et al., 2000. To be noted: ref Matsushima et al., 1999; Von Der Hude et al., 2000; cited from earlier work.
The subject of series [4] is chromosome damage. On the set-up: method as in De Boeck et al., 2005. The note with it: ref De Boeck et al., 2005; cited from earlier work.
Series [5] concerns human lymphoblastoid TK6 cells. Nature of the series: In vitro MicroFlow assay (flow cytometry-based micronucleus test). To be noted: for MicroFlow summary classification (MN induction): TK6 cells, 4H exposure, 24-h sampling; for MicroFlow %MN response (text): positive: >2.5 fold-increase in %MN and p < 0.05 vs vehicle. (Flow cytometry measures light scatter and fluorescence of single cells or particles in a stream.)

For series [6], the system named is human lymphoblastoid TK6 cells. Nature of the series: Viability assessment (propidium iodide fluorescence, flow cytometry). To be noted: TK6 cells, ± S9, quantified at 24 h via propidium iodide.
Series [7] concerns human lymphoblastoid TK6 cells. Nature of the series: TGx-DDI transcriptomic biomarker classification (TempO-Seq S1500+) and BMC modeling. To be noted: for Strength / consistency of TGx-DDI response (text): across concentrations and the three statistical analyses; for TGx-DDI classification: overall call from 2-DC, PCA, NSC-PA, S9 condition as in Figure 1; for TGx-DDI summary classification: TK6 cells, 4H exposure.

A short description of series [8]: Viability assessment (propidium iodide fluorescence, flow cytometry). The note with it: human, TK6 lymphoblastoid cells with S9.
The subject of series [9] is human lymphoblastoid TK6 cells. Nature of the series: Integrated NAM-based test strategy (TGx-DDI + MicroFlow + MultiFlow; ToxPi integration of BMCs). To be noted: from TGx-DDI, MicroFlow and MultiFlow calls.
The subject of series [10] is %MN. Also noted: method as in SCCP, 2006. To be noted: ref SCCP, 2006, cited from earlier work.
Series [11] has as its system MN. The note with it: cited from earlier work.
For series [12] the following is noted: follow-up assay; ref Avlasevich et al., 2021; cited from earlier work.
Series [13] has as its system HepaRG™ cells. Also noted: method as in Buick et al., 2020. To be noted: ref Buick et al., 2020; cited from earlier work.
Series [14] relates to HepaRG™ cells. On the set-up: method as in Buick et al., 2020. The note with it: ref Buick et al., 2020; cited from earlier work. This is another data set of the same source.
[15] abbreviates: +S9, TK6 cells, 4H and 24H sampling.
Where [16] appears, read: -S9, TK6 cells, 4H and 24H sampling.
The mark [17] stands for this setting: fold-increase over solvent control.
Setting [18] is: +S9 (rat liver S9), 3 h recovery.
Setting [19] is: GEF-based call, in at least one S9 condition.
The mark [20] stands for this setting: known apoptogens, ref Avlasevich et al., 2021.

On to `Cc1c2ccccc2c(C)c2c1ccc1ccccc12` [DMBA, 7,12-dimethylbenz[a]anthracene, reference compound], for which the “MultiFlow summary classification (call and MoA)” value (“MultiFlow summary classification” for short) in [1] (setting [15]) is “+ C”; in series [1] (setting [16]), “-”. In addition, in series [1] (setting [17]), the “MultiFlow biomarkers with responses” value is 4H & 24H ɣH2AX. In addition, the TGx-DDI summary classification result in series [2] is recorded as “+”. The “Chromosome damage in vitro” value in [3] was “induce chromosome damage”. For the same molecule, the “Chromosome damage in vivo” value in series [4] is given as “induce chromosome damage”. The “MicroFlow summary classification (MN induction)” value (shortened to “MicroFlow summary classification”) in series [5] (+S9) and in [5] (-S9) was “+” throughout. The “MicroFlow %MN response (text)” value in series [5] was “significant fold-increases in %MN”. In addition, the “Effect on cell viability” value in series [6] is listed as “caused a decline in viability”. Besides, the “Strength / consistency of TGx-DDI response (text)” value (“Strength / consistency” below) in [7] is “strong TGx-DDI response”. In addition, in series [7], the “TGx-DDI classification” value is “DDI”.
As for `Nc1ccc(Cl)cc1C(=O)c1ccccc1` [NSACB 1, 2-amino-5-chlorobenzophenone], the “MultiFlow MoA classification” value in [1] was “non-genotoxic”. For the same molecule, the “MultiFlow summary classification” value in series [1] is “-”. The “MultiFlow biomarkers with responses” value in series [1] (human) is “moderate to robust response increase in one of the aneugenic biomarkers (i.e., 4H p-H3)”. The “MicroFlow summary classification” value in [5] (+S9) and in [5] (-S9) was “+” each time. Further, the “MicroFlow %MN response (text)” value in [5] is on record as “robust fold-increase in %MN with a clear concentration-response relationship”. The molecule also came in with a viability at 24 h in [8] of 43%. The results for the TGx-DDI summary classification result in series [7] (setting [18]) and in series [7] (-S9) were “+” and “-”, respectively. Further, the “Strength / consistency” value is “weaker DDI responses” in series [7] (listed as #1) and “one DDI call at the highest concentration in the NSC-PA only” in series [7] (listed as NSACB #1). In series [7], the “TGx-DDI classification” value is “DDI”. Further, the Integrated hazard conclusion result in series [9] is “somewhat ambiguous”.
In the case of `COc1ccc(NCCO)cc1N` [NSACB 7, 2-[(3-amino-4-methoxyphenyl)amino]ethanol], the “Strength of MultiFlow biomarker response (text)” value in series [1] is “more moderate responses”. The “MultiFlow summary classification” value in series [1] (setting [15]) and in [1] (setting [16]) was “+ C” each time. Besides, in [1] (setting [19]), the “MultiFlow MoA classification” value is reported as “clastogens”. Besides, the “MultiFlow biomarkers with responses” value in series [1] (setting [17]) was 4H p53 and 4H ɣH2AX. The “In vitro micronucleus result (OECD 487)” value in [10] (with S9) is “statistically significant and biologically relevant increase in the frequency of %MN”; in series [10] (without S9), “equivocal”. Moreover, the “MicroFlow summary classification” value in series [5] (+S9) and in [5] (-S9) was “+” each time. In addition, the “MicroFlow %MN response (text)” value in series [5] (listed as 7) is reported as “robust fold-increase in %MN with a clear concentration-response relationship”; in series [5] (listed as NSACB #7), “stronger %MN frequency in the +S9 condition at the highest concentration”. Moreover, the TGx-DDI summary classification entry in [7] (setting [18]) and in series [7] (-S9) was “+” in each case. In addition, in series [7], the “Strength / consistency” value is “strongest responses”. Besides, in series [7], the “TGx-DDI classification” value is “DDI across all concentrations except the lowest”. Also, the Integrated hazard conclusion entry in series [9] is “genotoxic in vitro, causing DNA damage via a clastogenic MoA”.
For the molecule `Cc1ccc(NCCO)c([N+](=O)[O-])c1` [NSACB 8, 2-[(4-methyl-2-nitrophenyl)amino]ethanol], the “MultiFlow summary classification” value in series [1] (setting [15]) and in series [1] (setting [16]) was “-” each time. In addition, the “MultiFlow MoA classification” value in series [1] (setting [19]) was “non-genotoxic”. Moreover, the “MicroFlow summary classification” value in series [5] (+S9) is reported as “+”; in [5] (-S9), “-”. Moreover, the “MicroFlow %MN response (text)” value in [5] (listed as 8) is listed as “robust fold-increase in %MN with a clear concentration-response relationship”; in series [5] (listed as #8), “only tested positive with S9 conditions”. Moreover, the viability at 24 h in [8] is 46%. Further, the TGx-DDI summary classification result is on record as “+” in [7] (setting [18]) and “-” in series [7] (-S9). Further, the “Strength / consistency” value in series [7] (listed as 8) is “weaker DDI responses”; in series [7] (listed as NSACB #8), “two DDI calls at the highest concentration by NSC-PA and PCA”. Further, the “TGx-DDI classification” value in [7] was “DDI”. In addition, the Integrated hazard conclusion entry in series [9] is listed as “somewhat ambiguous”.
For `CCCOCC(C)OCC(C)O` (stereo not shown) [NSACB 10, 1-(1-methyl-2-propoxyethoxy)-2-propanol], in series [6], the “Effect on cell viability” value was “did not impact viability up to the highest concentration of 10 mM”. For the same molecule, the Integrated hazard conclusion result in series [9] is listed as “likely irrelevant positives in the MN test”.
Turning to `C[C@H]1CCC/C=C/[C@@H]2C[C@H](O)C[C@H]2[C@H](O)/C=C/C(=O)O1` [brefeldin A], the “MicroFlow MN result” value in series [11] (setting [20]) is on record as “induce MN”. Further, the MultiFlow classification entry in [12] is recorded as “non-genotoxicants”.
As to `COc1cc2c(c(OC)c1OC)-c1ccc(OC)c(=O)cc1[C@@H](NC(C)=O)CC2` [colchicine], the MN result in series [13] is recorded as “positive”. In addition, the TGx-DDI classification entry in [14] was “negative (non-DDI)”.
As for `C/C=C(/C)C(=O)O[C@H]1C(C)=C2[C@H]([C@@H]1OC(=O)CCCCCCC)[C@@](C)(OC(C)=O)C[C@H](OC(=O)CCC)[C@@]1(O)[C@H]2OC(=O)[C@@]1(C)O` [thapsigargin], the “MicroFlow MN result” value in series [11] was “induce MN”.
“carbonyl cyanide m-chlorphenyl hydrazone [CCCP]”: the “MicroFlow MN result” value in series [11] (setting [20]) is given as “induce MN”. In addition, the MultiFlow classification entry in series [12] is “non-genotoxicants”.

What is called viability is the share of living cells, or the viability signal relative to a control. High values mean better survival, low ones a greater loss of cells.

Values taken from paper PMC9899896, “Application of a new approach methodology (NAM)-based strategy for genotoxicity assessment of data-poor compounds” (Frontiers in Toxicology, 2023).
